Test results published in patent publication US9499493B2, “2,4-pyrimidinediamine compounds and their uses” (Rigel Pharmaceuticals, Inc., priority 2002, dated 2016).

System: cultured human mast cells (CHMC)
Assay: CHMC low cell density IgE activation: tryptase assay
Format: cell-based
Conditions: anti-IgE
Procedure: Pellet CHMC cells (980 rpm, 10 min) and resuspend in pre-warmed MT. Add 65 ul of cells to each 96-well plate. Depending on the degranulation activity for each particular CHMC donor, load 1000-1500 cells/well. Mix four times followed by a 1 hr incubation at 37° C. […] Stimulate cells by adding 25 ul of 6× anti-IgE solution to the appropriate plates. Add 25 ul MT to un-stimulated control wells. Mix twice following addition of the anti-IgE. Incubate at 37° C. for 30 minutes. […] Spin plates at 1000 rpm for 10 min to pellet cells. Transfer 25 ul of supernatant to a 96-well black bottom plate and add 100 ul of freshly diluted tryptase substrate solution to each well. Incubate plates at room temperature for 30 min.

IC50 [nM] | Structure (SMILES)
4050 | CCOC(=O)CCn1ncc2cc(Nc3ncc(F)c(Nc4ccc5c(c4)OCCO5)n3)ccc21 [R935301, N2-[1-(2-Ethoxycarbonylethyl)indazoline-5-yl]-N4-(3,4-ethylenedioxyphenyl)-5-fluoro-2,4-pyrimidinediamine]
244 | CCOC(=O)CCn1ncc2cc(Nc3nc(Nc4cccc(O)c4)ncc3F)ccc21 [R935303, N4-[1-(2-Ethoxycarbonylethyl)indazoline-5-yl]-5-fluoro-N2-(3-hydroxyphenyl)-2,4-pyrimidinediamine]
345 | CCOC(=O)CCn1ncc2cc(Nc3nc(Nc4ccc(OC(C)C)cc4)ncc3F)ccc21 [R935306, N4-[1-(2-Ethoxycarbonylethyl)indazoline-5-yl]-5-fluoro-N2-(4-isopropoxyphenyl)-2,4-pyrimidinediamine]
139 | CC(C)Oc1ccc(Nc2nc(Nc3ccc4c(cnn4CCCO)c3)ncc2F)cc1 [R935307, 5-Fluoro-N2-[1-(3-hydroxypropyl)indazoline-5-yl]-N4-(4-isopropoxyphenyl)-2,4-pyrimidinediamine]
2770 | COC(=O)c1ccc(Cn2ncc3ccc(Nc4ncc(F)c(Nc5ccc6c(c5)OCCO6)n4)cc32)c(OC)c1 [R935320, N4-(3,4-Ethylenedioxyphenyl)-5-fluoro-N2-[1-(2-methoxy-4-carbomethoxybenzyl)indazoline-6-yl]-2,4-pyrimidinediamine]
2990 | COC(=O)c1ccc(Cn2ncc3ccc(Nc4ncc(F)c(Nc5cccc(O)c5)n4)cc32)c(OC)c1 [R935321, 5-Fluoro-N4-(3-hydroxyphenyl)-N2-[1-(2-methoxy-4-carbomethoxybenzyl)indazoline-6-yl]-2,4-pyrimidinediamine]
3420 | COc1cc(C(=O)NS(=O)(=O)c2ccccc2C)ccc1Cn1ncc2ccc(Nc3ncc(F)c(Nc4ccc(OC(C)C)cc4)n3)cc21 [R935322, 5-Fluoro-N4-(4-isopropoxyphenyl)-N2-[1-[2-methoxy-4-(o-toluylsulfonamidocarboxy)benzyl]indazoline-6-yl]-2,4-pyrimidinediamine]
> 10000 | COc1cc(C(=O)NS(=O)(=O)c2ccccc2C)ccc1Cn1ncc2ccc(Nc3ncc(F)c(Nc4ccc5c(c4)OCCO5)n3)cc21 [R935323, N4-(3,4-Ethylenedioxyphenyl)-5-fluoro-N4-[1-[2-methoxy-4-(o-toluylsulfonamidocarboxy)benzyl]indazoline-6-yl]-2,4-pyrimidinediamine]
> 10000 | COc1cc(C(=O)NS(=O)(=O)c2ccccc2C)ccc1Cn1ncc2ccc(Nc3ncc(F)c(Nc4cccc(O)c4)n3)cc21 [R935324, 5-Fluoro-N4-(3-hydroxyphenyl)-N2-[1-[2-methoxy-4-(o-toluylsulfonamidocarboxy)benzyl]indazoline-6-yl]-2,4-pyrimidinediamine]
> 10000 | COC(=O)c1ccc(Cn2cc3ccc(Nc4ncc(F)c(Nc5cccc(O)c5)n4)cc3n2)c(OC)c1 [R935337, 5-Fluoro-N4-(3-hydroxyphenyl)-N2-[2-(2-methoxy-4-carbomethoxybenzyl)indazoline-6-yl]-2,4-pyrimidinediamine]
> 10000 | COc1cc(C(=O)NS(=O)(=O)c2ccccc2C)ccc1Cn1ncc2cc(Nc3ncc(F)c(Nc4ccc5c(c4)OCCO5)n3)ccc21 [R935339, N4-(3,4-Ethylenedioxyphenyl)-5-fluoro-N2-[1-[2-methoxy-4-(o-toluylsulfonamidocarboxy)benzyl]indazoline-5-yl]-2,4-pyrimidinediamine]
3610 | COc1cc(C(=O)NS(=O)(=O)c2ccccc2C)ccc1Cn1ncc2cc(Nc3ncc(F)c(Nc4cccc(O)c4)n3)ccc21 [R935340, 5-Fluoro-N4-(3-hydroxyphenyl)-N2-[1-[2-methoxy-4-(o-toluylsulfonamidocarboxy)benzyl]indazoline-5-yl]-2,4-pyrimidinediamine]
1610 | COc1ccc(Nc2nc(Nc3ccc4c(cnn4C)c3)ncc2F)c(OC)n1 [R935380, N4-(2,6-Dimethoxy-3-pyridyl)-5-fluoro-N2-[1-methylindazoline-5-yl]-2,4-pyrimidinediamine]
2560 | CNC(=O)COc1cccc(Nc2ncc(F)c(Nc3ccc(OC)c(C(=O)NC(C)C)c3)n2)c1 [R940312, 5-Fluoro-N2-[3-(methylaminocarbonylmethyleneoxy)phenyl]-N4-(3-iso-propylaminocarbonyl-4-methoxyphenyl)-2,4-pyrimidinediamine]
4200 | CNC(=O)COc1cccc(Nc2ncc(F)c(Nc3ccc(OC)c(CN4CCOCC4)c3)n2)c1 [R940314, 5-Fluoro-N2-[3-(methylaminocarbonylmethyleneoxy)phenyl]-N4-[3-(N-morpholinomethylene)-4-methoxyphenyl]-2,4-pyrimidinediamine]
1860 | COc1ccc(Nc2nc(Nc3cc(C)c(O)c(Cl)c3)ncc2F)cc1CN1CCOCC1 [R940316, N2-(3-Chloro-4-hydroxy-5-methylphenyl)-5-fluoro-N4-[3-(N-morpholinomethylene)-4-methoxyphenyl]-2,4-pyrimidinediamine]
3790 | COc1ccc(Nc2nc(Nc3cc(C)c(O)c(Cl)c3)ncc2F)cc1CN1CCNCC1 [R940318, N2-(3-Chloro-4-hydroxy-5-methylphenyl)-5-fluoro-N4-[3-(N-piperazinomethylene)-4-methoxyphenyl]-2,4-pyrimidinediamine]
> 10000 | CNC(=O)COc1cccc(Nc2ncc(F)c(Nc3ccc(OC)c(CN(C)C)c3)n2)c1 [R940321, N4-(3-N,N-Dimethylaminomethylene-4-methoxyphenyl)-5-fluoro-N2-[3-(methylaminocarbonylmethyleneoxy)phenyl]-2,4-pyrimidinediamine]
1100 | CNC(=O)COc1cccc(Nc2ncc(F)c(Nc3ccc4c(c3)N(c3ccccn3)CC(C)(C)O4)n2)c1 [R940337, N4-[3-Dihydro-2,2-dimethyl-4-(2-pyridyl)-benzo[1,4]oxazin-6-yl]-5-fluoro-N2-[3-(methylaminocarbonylmethyleneoxy)phenyl]-2,4-pyrimidinediamine]
1710 | CNC(=O)COc1cccc(Nc2ncc(F)c(Nc3cnc4c(c3)OC(C)(C)C(=O)N4)n2)c1 [R940345, N4-[(2,2-Dimethyl-4H-5-pyrido[1,4]oxazin-3-one)-7-yl]-5-fluoro-N2-[3-(methylaminocarbonylmethyleneoxy)phenyl]-2,4-pyrimidinediamine]
142 | CC1(C)Oc2ccc(Nc3nc(Nc4cccc(O)c4)ncc3F)cc2NC1=O [R940346, N4-[(2,2-Dimethyl-4H-benzo[1,4]oxazin-3-one)-6-yl]-5-fluoro-N2-(3-hydroxyphenyl)-2,4-pyrimidinediamine]
2190 | CC1(C)CN(c2ccccn2)c2cc(Nc3nc(Nc4cccc(O)c4)ncc3F)ccc2O1 [R940348, N4-[3-Dihydro-2,2-dimethyl-4-(2-pyridyl)-benzo[1,4]oxazin-6-yl]-5-fluoro-N2-(3-hydroxyphenyl)-2,4-pyrimidinediamine]

Structure (SMILES) | IC50 [nM]
CNC(=O)COc1cccc(Nc2ncc(F)c(Nc3ccc(OC)c(CN(C(=O)OC(C)(C)C)C(C)C)c3)n2)c1 [R940319, N4-(3-(N-tert-Butoxycarbonyl-N-iso-propylaminomethylene)-4-methoxyphenyl)-5-fluoro-N2-[3-(methylaminocarbonylmethyleneoxy)phenyl]-2,4-pyrimidinediamine] | > 10000
